We go through 5 compounds from patent US20230142647A1, “METHOD OF TREATING CANCER OR A BLOOD DISORDER” (priority 2021, published 2023).

The test system of one test is HL-60 cell line. The test is described as follows: AML HL-60 cell line cell counts and morphologic differentiation. It counts as cell-based. Particulars: Valtrate 6 μM, CAPE 4 μM, 5-AC 2.5 μM, selinexor 20 nM, day 5.
Test [1] relates to human NPM1/FLT3-mutated AML cells. The experiment in a line: single agent survival experiment in PDX model with NPM1/FLT3 mutations (Example 2). The format is in vivo, mice. To be noted: 3x/wk from day 24; for survival benefit compared to vehicle (in words): Valtrate 10 mg/kg, CAPE 50 mg/kg, selinexor 7 mg/kg by oral gavage. Here is the method: FIG. 4A. Experiment plan diagram. […] THU inhibits cytidine deaminase(CDA) to prolong 5-AC half-life. Treatment was initiated at day 24 and then repeated three times a week. Mice were humanly euthanized after becoming moribund or losing 15% of their initial weight in accordance with institutional guidelines. (FIG. 4B) Survival presented as Kaplan-Meier survival analysis graph from inoculation time to distress. P values and log-rank test are calculated and plotted. […] Mean±SD.
Immunodeficient NSG mice are xenotransplanted with human NPM1/FLT3-mutated AML cells.
On day 24 mice were assigned for treatment groups (n=5 per group). The treatment groups are 1) Vehicle, 2) Valtrate 10 mg/kg by oral gavage, 3) CAPE 50 mg/kg by oral gavage, 4) selinexor 7 mg/kg by oral gavage, 5) 5-AC2 mg/kg subcutaneously, and 6) 5-AC(2 mg/kg) subcutaneously+THU (20 mg/kg) intraperitoneally. The addition of THU extends 5-AC half-life, by inhibiting the enzyme cytidine deaminase(CDA), which degrades 5-AC. Treatment started on day 24, 3×/wk. (FIG. 4A). […] Groups are compared with vehicle and with each other. To monitor progress periodic blood counts are analyzed along with distress signs.

The test system of a further test is AML (NPM1-FLT3 and MLL). It counts as in vivo.
Test [2] relates to AML with NPM1/FLT3 mutations cells. The experiment in a line: survival study of combinations in high tumor load PDX model of NPM1/FLT3 mutations (Example 4). To be noted: at distress point or day 200. It counts as in vivo, mice.
From the text: FIG. 9A Treatment groups illustration: Primary acute myelogenous leukemia (AML) patient cells with Nucleophosmin 1 and fins-like tyrosine kinase-3 mutations (NPM1/FLT3) were xenotranplanted into immunodeficient Nod-SCID-IL-2Rgamma-null mice (NSG, Jackson Laboratory) by injecting 1×10^6 cells IV (n=5 per group) at day 0 (D0). Engraftment D28≥45% bone engraftment was confirmed in 3 randomly selected mice. At D28 mice were divided in to five treatment groups (n=5 per group), 1) Vehicle, 2) 5-AC(2 mg/kg)/THU(20 mg/kg), 3) 5-AC(2 mg/kg)/THU(20 mg/kg)/selinexor (5 mg/kg), 4) 5-AC(2 mg/kg)/THU(20 mg/kg)/CAPE (50 mg/kg) and 5) 5-AC(2 mg/kg)/THU(20 mg/kg)/Valtrate(10 mg/kg). […]
Peripheral blood analysis of WBCs, hemoglobin Hb, and platelets count. peripheral blood obtained by tail vein phlebotomy and serial blood counted on day 0, 45, 100, 140 and 200. And analyzed by HemaVet blood lab. […]
An image analysis to evaluate tumor burden of the spleens, was by histologic identification of relatively large infiltrating AML cells, replacing normal splenic structure by H&E staining of spleen sections. Image analysis of cell counts were plotted and quantified. […]
Furthermore, efficacy vs toxicity is best assessed by serial peripheral blood analysis of WBCs, hemoglobin Hb, and platelets. […] Blood samples were analyzed by HemaVet blood lab. […]

Where two headings read alike, the source gives them in different places.

Method for HL-60 cell line: Cell counts obtained using automated counter, Mean±SD (3 experiments) cell morphology obtained from the same cell culture. P<0.01 significant, t test (2 sided). The small molecule agents were used in dosages: Valtrate (6 μM), CAPE (4 μM), 5-AC (2.5 μM), selinexor (20 nM) and in the combinations relative to vehicle. cell counts (day 0-5) and morphology (day 5). (FIG. 3A) Valtrate, 5-AC, and Valtrate+5-AC cell count and morphologic changes relative to vehicle and individual agents. (FIG. 3B) CAPE, 5-AC, and CAPE+5-AC cell counts day 0-5 and morphologic changes on day 5 relative to vehicle and individual agents. (FIG. 3C) Combinational groups of 5-AC+valtrate, 5-AC+CAPE, and 5-AC+selinexor morphologic development (day 5) are compared.
The low dosages were purposed for use in combination with low dose 5-AC, Such as to position AML cells in a state of hypomethylated accessible chromatin with increased nuclear transcription factors. cell counts and morphologic alterations were observed. Dosages for this purpose were: Valtrate (6 μM), CAPE (4 μM), 5-AC (2.5 μM), and for comparing with Selinexor (20 nM) the same dosages were used for combinations.

With `O=C(/C=C\n1cnc(-c2cc(C(F)(F)F)cc(C(F)(F)F)c2)n1)NNc1cnccn1` [selinexor], the “spindle shaped cells (terminal fate morphology)” value with HL-60 cell line is given as “not observed”. Moreover, the “survival benefit compared to vehicle (in words)” value in test [1] is given as “minimal”.
In the case of `O=C(/C=C/c1ccc(O)c(O)c1)OCCc1ccccc1` [CAPE, Caffeic Acid Phenethyl Ester], the “synergy in combination with 5-AC” value in the test with AML (NPM1-FLT3 and MLL) (oral Valtrate 10 mg/kg 3x/wk or CAPE 50 mg/kg 3x/wk, in combination with 5-AC) is recorded as “effective synergetic action”. Moreover, the “spindle shaped cells (terminal fate morphology)” value in the test on HL-60 cell line is recorded as “not observed”. The “survival benefit compared to vehicle (in words)” value in test [1] is listed as “minimal”.
As to `Nc1ncn([C@@H]2O[C@H](CO)[C@@H](O)[C@H]2O)c(=O)n1` [5-AC, 5-Azacytidine], the survival benefit result in test [1] (5-AC 2 mg/kg subcutaneously, THU 20 mg/kg intraperitoneally) is given as “more than 25 days”. The “femoral and tibial bone appearance (white = leukemia replacement, red/dark = functional hematopoiesis)” value in test [2] is recorded as “White pale bones”.
Turning to Valtrate, the “synergy in combination with 5-AC” value with AML (NPM1-FLT3 and MLL) (mouse, in vivo) is listed as “effective synergetic action”. Also, the “survival benefit compared to vehicle (in words)” value in test [1] is given as “minimal”.
As to `O=C1NC(O)CCN1[C@@H]1O[C@H](CO)[C@@H](O)[C@H]1O` (stereo partly shown) [THU, Tetrahydrouridine], the “femoral and tibial bone appearance (white = leukemia replacement, red/dark = functional hematopoiesis)” value in test [2] is given as “White pale bones”.
